According to patent US20140275010A1, “QUATERNARY SALTS” (priority 2013, published 2014):

Columns and labels:
Type in all cases: cell-based
[1] = test system: WiDr cells: Colon cancer cells (wildtype SF3B1); assay: Cell viability assay (CellTiter-Glo), WiDr cells; settings: 72 hr
Procedure: (§1) Cells are seeded in 96-well plate with 2000 cells/100 uL/well and incubated overnight. Spent media was removed and fresh media containing compound (100 uL/well) with appropriate 9 concentrations are added. Each compound was treated in duplicate or triplicate manner at each concentration. DMSO concentration was adjusted to be 0.1%. Another plate was dedicated as Tz plate which was added 0.1% DMSO in media (100 uL/well) followed by CellTiter-Glo® (Promega corp., 50 uL/well) for ATP measurement as a surrogate of cell viability. Values from this plate are used as Tz. Compound treated plates are incubated for 72 hr at 37 C. Then, CellTiter-Glo® (50 uL/well) was added and ATP level was measured. Values from compound treated wells are used as Ti and DMSO treated wells are used as C.
(§2) Percentage growth inhibition was calculated as:
(§3) [(Ti−Tz)/(C−Tz)]×100 for concentrations for which Ti>/=Tz
(§4) [(Ti−Tz)/Tz]×100 for concentrations for which Ti<Tz.
(§5) *[time zero, (Tz), control growth (C), and test growth in the presence of drug with dose (Ti)] Growth inhibition of 50% (GI50) was calculated from [(Ti−Tz)/(C−Tz)]×100=50, which was the drug concentration resulting in a 50% reduction in the net protein increase in control cells during the drug incubation. The LC50 (concentration of drug resulting in a 50% reduction in the measured value at the end of the drug treatment as compared to that at the beginning) indicating a net loss of cells following treatment was calculated from [(Ti−Tz)/Tz]×100=−50.
(§6) Emax was defined as highest growth inhibition that particular compound achieved in tested dose range.

[2] = test system: Panc 05.04 cells: Pancreatic cancer cells (Q699H and K700E mutations in SF3B1); assay: Cell viability assay (CellTiter-Glo), Panc 05.04 cells; settings: 72 hr; for Gl50 Panc 05.04: Panc 05.04 pancreatic cancer cells, SF3B1 Q699H and K700E, CellTiter-Glo; for Emax Panc 05.04: highest growth inhibition achieved in tested dose range
Procedure: as §1, §2, §3, §4, §5, §6

[3] = test system: WiDr-R cells: Colon cancer cells (chemically-induced SF3B1 mutant which is resistant to E7107 (R1074H mutation)); assay: Cell viability assay (CellTiter-Glo), WiDr-R cells; settings: 72 hr
Procedure: as §1, §2, §3, §4, §5, §6

| Structure (SMILES) | Gl50 WiDr [1] | Gl50 Panc 05.04 [2] | Emax Panc 05.04 [2] | Gl50 WiDr-R [3] |
| --- | --- | --- | --- | --- |
| CC[C@H](O)[C@@H](C)[C@H]1O[C@@H]1C[C@H](C)/C=C/C=C(\C)[C@H]1OC(=O)C[C@H](O)CC[C@@](C)(O)[C@@H](OC(=O)NCCC[N+]2(C)CCOCC2)/C=C/[C@@H]1C.[I-] [Cpd. 4] | 67.4 nM | 41.5 nM | −75% | – |
| CC[C@H](O)[C@@H](C)[C@H]1O[C@@H]1C[C@H](C)/C=C/C=C(\C)[C@H]1OC(=O)C[C@H](O)CC[C@@](C)(O)[C@@H](OC(=O)NCCC[N+](C)(C)C)/C=C/[C@@H]1C.[I-] [Cpd. 5] | 176.0 nM | 120.8 nM | −79% | >10000 nM |
| CC[C@H](O)[C@@H](C)[C@H]1O[C@@H]1C[C@H](C)/C=C/C=C(\C)[C@H]1OC(=O)C[C@H](O)CC[C@@](C)(O)[C@@H](OC(=O)N2CC[N+](C)(C3CCCCC3)CC2)/C=C/[C@@H]1C.[I-] [Cpd. 6] | 227.0 nM | 1593 nM | −8.1% | >1000 nM |
| CC[C@H](O)[C@@H](C)[C@H]1O[C@@H]1C[C@H](C)/C=C/C=C(\C)[C@H]1OC(=O)C[C@H](O)CC[C@@](C)(O)[C@@H](OC(=O)N2CCC[N+](C)(C)CC2)/C=C/[C@@H]1C.[I-] [Cpd. 8] | 568.0 nM | 431.6 nM | −74% | >1000 nM |
| CC[C@H](O)[C@@H](C)[C@H]1O[C@@H]1C[C@H](C)/C=C/C=C(\C)[C@H]1OC(=O)C[C@H](O)CC[C@@](C)(O)[C@@H](OC(=O)N2CCC[N+](C)(C3CCCCC3)CC2)/C=C/[C@@H]1C.[I-] (stereo partly drawn) [Cpd. 11] | 958.0 nM | 410.7 nM | −87% | >1000 nM |
| CC[C@H](O)[C@@H](C)[C@H]1O[C@@H]1C[C@H](C)/C=C/C=C(\C)[C@H]1OC(=O)C[C@H](O)CC[C@@](C)(O)[C@@H](OC(=O)N2CC3(C2)C[N+](C)(C2CCCCCC2)C3)/C=C/[C@@H]1C.[I-] [Cpd. 12] | 106.0 nM | 79.2 nM | −89% | >1000 nM |
| CC[C@H](O)[C@@H](C)[C@H]1O[C@@H]1C[C@H](C)/C=C/C=C(\C)[C@H]1OC(=O)C[C@H](O)CC[C@@](C)(O)[C@@H](OC(=O)N2CCC([N+]3(C)CCCC3)CC2)/C=C/[C@@H]1C.[I-] [Cpd. 13] | 44.1 nM | 80.4 nM | −61% | >1000 nM |
| CC[C@H](O)[C@@H](C)[C@H]1O[C@@H]1C[C@H](C)/C=C/C=C(\C)[C@H]1OC(=O)C[C@H](O)CC[C@@](C)(O)[C@@H](OC(=O)N2CCC([N+]3(C)CCCCC3)CC2)/C=C/[C@@H]1C.[I-] [Cpd. 14] | 51.4 nM | 53.3 nM | −70% | >1000 nM |
| CC[C@H](O)[C@@H](C)[C@H]1O[C@@H]1C[C@H](C)/C=C/C=C(\C)[C@H]1OC(=O)C[C@H](O)CC[C@@](C)(O)[C@@H](OC(=O)N(C)C2CC[N+](C)(C)CC2)/C=C/[C@@H]1C.[I-] [Cpd. 15] | 117.0 nM | 234.8 nM | −53% | >1000 nM |
| CC[C@H](O)[C@@H](C)[C@H]1O[C@@H]1C[C@H](C)/C=C/C=C(\C)[C@H]1OC(=O)C[C@H](O)CC[C@@](C)(O)[C@@H](OC(=O)N2C[C@H]3C[C@@H]2C[N+]3(C)C)/C=C/[C@@H]1C.[I-] [Cpd. 16] | >1000 nM | 1746 nM | −27% | >1000 nM |
| CC[C@H](O)[C@@H](C)[C@H]1O[C@@H]1C[C@@](C)(O)/C=C/C=C(\C)[C@H]1OC(=O)C[C@H](O)CC[C@@](C)(O)[C@@H](OC(=O)N2CC[N+](Cc3ccccc3)(C3CCCCCC3)CC2)/C=C/[C@@H]1C.[Br-] [Cpd. 18] | 162 nM | 139.2 nM | −55% | – |
| C=CC[N+]1(C2CCCCCC2)CCN(C(=O)O[C@H]2/C=C/[C@H](C)[C@@H](/C(C)=C/C=C/[C@](C)(O)C[C@H]3O[C@@H]3[C@H](C)[C@@H](O)CC)OC(=O)C[C@H](O)CC[C@@]2(C)O)CC1.[Br-] [Cpd. 19] | 551 nM | 808.7 nM | −45% | – |
| C=CC[N+]1(C2CCCCCC2)CCN(C(=O)O[C@H]2/C=C/[C@H](C)[C@@H](/C(C)=C/C=C/[C@](C)(O)C[C@H]3O[C@@H]3[C@H](C)[C@@H](O)CC)OC(=O)C[C@H](O)CC[C@@]2(C)O)CC1.[I-] [Cpd. 20] | 289 nM | 316.9 nM | −67.5% | – |
| CCC(=O)C(C)C1OC1CC(C)(O)C=CC=C(C)C1OC(=O)CC(O)CCC(C)(O)C(OC(=O)N2CC[N+](C)(C3CCCCCC3)CC2)C=CC1C.[I-] (stereo not drawn) [Cpd. 25] | 5500.0 nM | 10000 nM | – | >5500 nM |
| CC[C@H](O)[C@@H](C)[C@H]1O[C@@H]1C[C@H](C)/C=C/C=C(\C)[C@H]1OC(=O)C[C@H](O)CC[C@@](C)(OC(=O)N2CC[N+](C)(C3CCCCCC3)CC2)[C@@H](OC(C)=O)/C=C/[C@@H]1C.[I-] [Cpd. 26] | 1491.0 nM | 5305 nM | – | >10000 nM |
| CC[C@H](O)[C@@H](C)[C@H]1O[C@@H]1C[C@H](C)/C=C/C=C(\C)[C@H]1OC(=O)C[C@H](O)CC[C@@](C)(OC(=O)N2CC[N+](C)(C(C)C)CC2)[C@@H](OC(C)=O)/C=C/[C@@H]1C.[I-] [Cpd. 27] | 6781.0 nM | 1115 nM | −56% | >10000 nM |
| CC[C@H](O)[C@@H](C)[C@H]1O[C@@H]1C[C@H](C)/C=C/C=C(\C)[C@H]1OC(=O)C[C@H](O)CC[C@@](C)(OC(=O)N2CC[N+](C)(C)CC2)[C@@H](OC(C)=O)/C=C/[C@@H]1C.[I-] [Cpd. 28] | 456.0 nM | 413.3 nM | −31% | >1000 nM |
| CC[C@H](O)[C@@H](C)[C@H]1O[C@@H]1C[C@@](C)(O)/C=C/C=C(\C)[C@H]1OC(=O)CCCCC[C@@H](OC(=O)N2CC[N+](C)(C3CCCCCC3)CC2)/C=C/[C@@H]1C.[I-] [Cpd. 31] | 3285 nM | 2458 nM | −22% | >10000 nM |
